Data reported in the Kinase Knowledgebase extract (Sharma et al. 2016).

target: MAPK14 (human) (UniProt Q16539); assay: Inhibition of MAPK14 Kinase Activity
Sequence (Q16539 whole entry, looked up): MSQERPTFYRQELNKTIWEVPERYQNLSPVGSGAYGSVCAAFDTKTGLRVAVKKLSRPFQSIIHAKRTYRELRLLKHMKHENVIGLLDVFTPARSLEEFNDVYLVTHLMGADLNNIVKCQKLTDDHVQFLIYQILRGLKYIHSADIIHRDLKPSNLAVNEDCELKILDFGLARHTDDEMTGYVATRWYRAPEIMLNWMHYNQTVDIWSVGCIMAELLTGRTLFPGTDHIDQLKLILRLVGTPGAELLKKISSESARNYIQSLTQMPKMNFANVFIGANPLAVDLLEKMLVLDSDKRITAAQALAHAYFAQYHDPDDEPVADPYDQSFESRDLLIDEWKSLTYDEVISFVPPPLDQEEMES

Going from `CC(C)n1c(-c2ccc(C(N)=O)cc2)nc(OCc2ccc(F)cc2F)c(Cl)c1=O` to `CC(C)n1c(-c2ccc(C(N)=O)cc2)nc(OCc2ccc(F)cc2F)c(Br)c1=O`, the IC50 falls from 328 nM to 110 nM (3-fold). The second is the more potent here.

Compared with `CC(C)n1c(CCCC(=O)O)nc(OCc2ccc(F)cc2F)c(Cl)c1=O`, `CC(C)n1c(CCCC(N)=O)nc(OCc2ccc(F)cc2F)c(Cl)c1=O` is 1.9-fold lower in IC50: 497 nM for the first, 256 nM for the second.

Going from `CC(C)n1c(OCCNS(C)(=O)=O)nc(OCc2ccc(F)cc2F)c(Br)c1=O` to `CC(C)n1c(NCCNS(C)(=O)=O)nc(OCc2ccc(F)cc2F)c(Br)c1=O`, the IC50 falls from 18.5 nM to 1.7 nM (11-fold).

Compared with `CN[C@@H]1CCN(c2nc(OCc3ccc(F)cc3F)c(Br)c(=O)n2C(C)C)C1`, `CCN[C@@H]1CCN(c2nc(OCc3ccc(F)cc3F)c(Br)c(=O)n2C(C)C)C1` is 10-fold higher in IC50: 12.8 nM for the first, 131 nM for the second. The first is the more potent here.

First: CC(C)n1c(-c2ccccc2)nc(OCc2ccc(F)cc2F)cc1=O
Second: CC(C)n1c(-c2ccccc2)nc(OCc2ccc(F)cc2F)c(Cl)c1=O
The IC50 of the first is 12-fold higher: 3180 nM for the first, 260 nM for the second.

First: CC(C)n1c(N2CC[C@@H](N)C2)nc(OCc2ccc(F)cc2F)c(Cl)c1=O
Second: CC(C)n1c(N2CC[C@H](N)C2)nc(OCc2ccc(F)cc2F)c(Cl)c1=O
The IC50 of the first is 3.3-fold lower: 497 nM for the first, 1660 nM for the second. The first is the more potent here.

`CC(C)n1c(OCCCC(=O)O)nc(OCc2ccc(F)cc2F)c(Cl)c1=O` and `CC(C)n1c(OCCCC(=O)NCCO)nc(OCc2ccc(F)cc2F)c(Cl)c1=O` are within 1.5-fold of each other in IC50: 229 nM for the first, 330 nM for the second.

Going from `CC(C)n1c(NCC(N)=O)nc(OCc2ccc(F)cc2F)c(Br)c1=O` to `CC(C)n1c(NCC(N)=O)nc(OCc2ccc(F)cc2F)c(Cl)c1=O`, the IC50 rises from 14.1 nM to 102 nM (7.2-fold).

Going from `CC(C)n1c(N2CC[C@@H](O)C2)nc(OCc2ccc(F)cc2F)c(Br)c1=O` to `CC(C)n1c(N2CCC(O)CC2)nc(OCc2ccc(F)cc2F)c(Br)c1=O`, the IC50 falls from 605 nM to 304 nM (2-fold). The second is the more potent here.

Compared with `CC(=O)NCCCNc1nc(OCc2ccc(F)cc2F)c(Br)c(=O)n1C(C)C`, `CC(C)n1c(NCCCNC(=O)C(C)(C)O)nc(OCc2ccc(F)cc2F)c(Br)c1=O` is 1.8-fold higher in IC50: 13 nM for the first, 23.8 nM for the second.

Going from `CC(C)n1c(-c2cccc(C(N)=O)c2)nc(OCc2ccc(F)cc2F)c(Cl)c1=O` to `CC(C)n1c(OCCNC(N)=O)nc(OCc2ccc(F)cc2F)c(Cl)c1=O`, the IC50 falls from 1020 nM to 21.2 nM (48-fold).

First: CNC(=O)CCc1nc(OCc2ccc(F)cc2F)c(Cl)c(=O)n1C(C)C
Second: CC(C)n1c(CCCO)nc(OCc2ccc(F)cc2F)c(Cl)c1=O
The IC50 of the first is 6.2-fold higher: 2430 nM for the first, 392 nM for the second. The second is the more potent here.

Going from `CC(C)n1c(N2CC[C@@H](N)C2)nc(OCc2ccc(F)cc2F)c(Br)c1=O` to `CC(C)n1c(N2CC[C@H](N)C2)nc(OCc2ccc(F)cc2F)c(Br)c1=O`, the IC50 rises from 69.6 nM to 818 nM (12-fold). The first is the more potent here.

Going from `CC(C)n1c(S(C)(=O)=O)nc(OCc2ccc(F)cc2F)c(Br)c1=O` to `CC(C)n1c(NCCCNS(C)(=O)=O)nc(OCc2ccc(F)cc2F)c(Br)c1=O`, the IC50 falls from 299 nM to 7.2 nM (42-fold). The second is the more potent here.

Going from `CC(=O)NCc1nc(OCc2ccc(F)cc2F)c(Br)c(=O)n1C(C)C` to `CC(C)n1c(CCCC(N)=O)nc(OCc2ccc(F)cc2F)c(Br)c1=O`, the IC50 falls from 1380 nM to 391 nM (3.5-fold).

First: CCNC(=O)NCc1cc(F)ccc1COc1nc(C)n(C(C)C)c(=O)c1Cl
Second: CNC(=O)NCCOc1nc(OCc2ccc(F)cc2F)c(Cl)c(=O)n1C(C)C
The IC50 of the first is 1.5-fold higher: 380 nM for the first, 249 nM for the second. The second is the more potent here.

`CC(C)n1c(NCCCC(N)=O)nc(OCc2ccc(F)cc2F)c(Br)c1=O` and `CC(C)n1c(NCCNC(N)=O)nc(OCc2ccc(F)cc2F)c(Br)c1=O` are within 1.5-fold of each other in IC50: 17.3 nM for the first, 14.2 nM for the second.

`CC(C)n1c(OCCN)nc(OCc2ccc(F)cc2F)c(Br)c1=O` and `CC(C)n1c(OCC(N)=O)nc(OCc2ccc(F)cc2F)c(Br)c1=O` are within 1.5-fold of each other in IC50: 334 nM for the first, 270 nM for the second.

Going from `CC(C)n1c(CCCCO)nc(OCc2ccc(F)cc2F)c(Cl)c1=O` to `CC(C)n1c(CCCC(=O)NCCO)nc(OCc2ccc(F)cc2F)c(Br)c1=O`, the IC50 rises from 181 nM to 600 nM (3.3-fold). The first is the more potent here.

`CC(C)n1c(N2CCN(C(=O)CN)CC2)nc(OCc2ccc(F)cc2F)c(Br)c1=O` and `CC(C)n1c(N2CCCC(C(N)=O)C2)nc(OCc2ccc(F)cc2F)c(Br)c1=O` (centres undefined) are within 1.5-fold of each other in IC50: 158 nM for the first, 119 nM for the second.

`CC(C)n1c(N2CC[C@@H](NCCO)C2)nc(OCc2ccc(F)cc2F)c(Br)c1=O` and `CC(C)n1c(N2CCNCC2)nc(OCc2ccc(F)cc2F)c(Br)c1=O` are within 1.5-fold of each other in IC50: 615 nM for the first, 732 nM for the second.

Going from `CC(C)n1c(-c2ccc(C(N)=O)cc2)nc(OCc2ccc(F)cc2F)c(Cl)c1=O` to `CC(C)n1c(-c2ccc(C(N)=O)cc2)nc(OCc2ccc(F)cc2F)c(Br)c1=O`, the Ki falls from 181 nM to 60.6 nM (3-fold).

Going from `CC(C)n1c(CCCC(=O)O)nc(OCc2ccc(F)cc2F)c(Cl)c1=O` to `CC(C)n1c(CCCC(N)=O)nc(OCc2ccc(F)cc2F)c(Cl)c1=O`, the Ki falls from 247 nM to 127 nM (1.9-fold).

Compared with `CC(C)n1c(OCCNS(C)(=O)=O)nc(OCc2ccc(F)cc2F)c(Br)c1=O`, `CC(C)n1c(NCCNS(C)(=O)=O)nc(OCc2ccc(F)cc2F)c(Br)c1=O` is 46-fold lower in Ki: 9.47 nM for the first, 0.205 nM for the second. The second binds more tightly here.

Compared with `CN[C@@H]1CCN(c2nc(OCc3ccc(F)cc3F)c(Br)c(=O)n2C(C)C)C1`, `CCN[C@@H]1CCN(c2nc(OCc3ccc(F)cc3F)c(Br)c(=O)n2C(C)C)C1` is 11-fold higher in Ki: 6.37 nM for the first, 71.6 nM for the second. The first binds more tightly here.

Going from `CC(C)n1c(-c2ccccc2)nc(OCc2ccc(F)cc2F)cc1=O` to `CC(C)n1c(-c2ccccc2)nc(OCc2ccc(F)cc2F)c(Cl)c1=O`, the Ki falls from 1690 nM to 144 nM (12-fold). The second binds more tightly here.

Going from `CC(C)n1c(N2CC[C@@H](N)C2)nc(OCc2ccc(F)cc2F)c(Cl)c1=O` to `CC(C)n1c(N2CC[C@H](N)C2)nc(OCc2ccc(F)cc2F)c(Cl)c1=O`, the Ki rises from 319 nM to 1070 nM (3.4-fold).

`CC(C)n1c(OCCCC(=O)O)nc(OCc2ccc(F)cc2F)c(Cl)c1=O` and `CC(C)n1c(OCCCC(=O)NCCO)nc(OCc2ccc(F)cc2F)c(Cl)c1=O` are within 1.5-fold of each other in Ki: 109 nM for the first, 157 nM for the second.

Compared with `CC(C)n1c(NCC(N)=O)nc(OCc2ccc(F)cc2F)c(Br)c1=O`, `CC(C)n1c(NCC(N)=O)nc(OCc2ccc(F)cc2F)c(Cl)c1=O` is 6.8-fold higher in Ki: 7.03 nM for the first, 48 nM for the second.

First: CC(C)n1c(N2CC[C@@H](O)C2)nc(OCc2ccc(F)cc2F)c(Br)c1=O
Second: CC(C)n1c(N2CCC(O)CC2)nc(OCc2ccc(F)cc2F)c(Br)c1=O
The Ki of the first is 1.8-fold higher: 297 nM for the first, 166 nM for the second.

First: CC(=O)NCCCNc1nc(OCc2ccc(F)cc2F)c(Br)c(=O)n1C(C)C
Second: CC(C)n1c(NCCCNC(=O)C(C)(C)O)nc(OCc2ccc(F)cc2F)c(Br)c1=O
The Ki of the first is 1.9-fold lower: 6.62 nM for the first, 12.7 nM for the second. The first binds more tightly here.

Going from `CC(C)n1c(-c2cccc(C(N)=O)c2)nc(OCc2ccc(F)cc2F)c(Cl)c1=O` to `CC(C)n1c(OCCNC(N)=O)nc(OCc2ccc(F)cc2F)c(Cl)c1=O`, the Ki falls from 557 nM to 12.4 nM (45-fold).

Going from `CNC(=O)CCc1nc(OCc2ccc(F)cc2F)c(Cl)c(=O)n1C(C)C` to `CC(C)n1c(CCCO)nc(OCc2ccc(F)cc2F)c(Cl)c1=O`, the Ki falls from 1160 nM to 202 nM (5.7-fold). The second binds more tightly here.

First: CC(C)n1c(N2CC[C@@H](N)C2)nc(OCc2ccc(F)cc2F)c(Br)c1=O
Second: CC(C)n1c(N2CC[C@H](N)C2)nc(OCc2ccc(F)cc2F)c(Br)c1=O
The Ki of the first is 12-fold lower: 36.3 nM for the first, 435 nM for the second.

First: CC(C)n1c(S(C)(=O)=O)nc(OCc2ccc(F)cc2F)c(Br)c1=O
Second: CC(C)n1c(NCCCNS(C)(=O)=O)nc(OCc2ccc(F)cc2F)c(Br)c1=O
The Ki of the first is 47-fold higher: 156 nM for the first, 3.32 nM for the second.

Compared with `CC(=O)NCc1nc(OCc2ccc(F)cc2F)c(Br)c(=O)n1C(C)C`, `CC(C)n1c(CCCC(N)=O)nc(OCc2ccc(F)cc2F)c(Br)c1=O` is 3.7-fold lower in Ki: 675 nM for the first, 181 nM for the second.

`CCNC(=O)NCc1cc(F)ccc1COc1nc(C)n(C(C)C)c(=O)c1Cl` and `CNC(=O)NCCOc1nc(OCc2ccc(F)cc2F)c(Cl)c(=O)n1C(C)C` are within 1.5-fold of each other in Ki: 174 nM for the first, 123 nM for the second.

`CC(C)n1c(NCCCC(N)=O)nc(OCc2ccc(F)cc2F)c(Br)c1=O` and `CC(C)n1c(NCCNC(N)=O)nc(OCc2ccc(F)cc2F)c(Br)c1=O` are within 1.5-fold of each other in Ki: 8.82 nM for the first, 7.04 nM for the second.

`CC(C)n1c(OCCN)nc(OCc2ccc(F)cc2F)c(Br)c1=O` and `CC(C)n1c(OCC(N)=O)nc(OCc2ccc(F)cc2F)c(Br)c1=O` are within 1.5-fold of each other in Ki: 140 nM for the first, 132 nM for the second.

First: CC(C)n1c(CCCCO)nc(OCc2ccc(F)cc2F)c(Cl)c1=O
Second: CC(C)n1c(CCCC(=O)NCCO)nc(OCc2ccc(F)cc2F)c(Br)c1=O
The Ki of the first is 3.1-fold lower: 90.5 nM for the first, 278 nM for the second. The first binds more tightly here.

`CC(C)n1c(N2CCN(C(=O)CN)CC2)nc(OCc2ccc(F)cc2F)c(Br)c1=O` and `CC(C)n1c(N2CCCC(C(N)=O)C2)nc(OCc2ccc(F)cc2F)c(Br)c1=O` (centres undefined) are within 1.5-fold of each other in Ki: 81 nM for the first, 61.6 nM for the second.

`CC(C)n1c(N2CC[C@@H](NCCO)C2)nc(OCc2ccc(F)cc2F)c(Br)c1=O` and `CC(C)n1c(N2CCNCC2)nc(OCc2ccc(F)cc2F)c(Br)c1=O` are within 1.5-fold of each other in Ki: 343 nM for the first, 379 nM for the second.
